Data set [1] in a line: Potentiation of GABA-induced current in rat cortical neurons at 100 uM by whole-cell patch clamp technique. The class given is functional. For orientation: Patch clamp records ionic current or voltage across a cell membrane.
Data set [2] relates to Rattus norvegicus. Description: Neurotoxicity in orally dosed Wistar rat after 1 hr by RotoRod test. The class given is toxicity, organism-based. The note with it: in vivo, po. (In general: The rotarod test checks motor coordination on a turning rod.)
The species entered for data set [3] is Rattus norvegicus. The note with it: Membrane, 10 uM.
A short description of data set [4]: Inhibition of voltage dependent sodium current in rat cortical neurons at 100 uM by whole-cell patch clamp technique. The class given is functional.
Data set [5] deals with Rattus norvegicus. The data set is described as follows: Anticonvulsant activity in orally dosed Wistar rat after 1 hr by PTZ test. It counts as functional. The settings on record: po.
For data set [6], the system named is Rattus norvegicus. The data set is described as follows: Anticonvulsant activity in orally dosed Wistar rat after 1 hr by MES test. The settings on record: po. The class given is functional.
The subject of data set [7] is Rattus norvegicus. Description: Anticonvulsant activity in orally dosed Wistar rat after 2 hrs by MES test. The class given is functional. The settings on record: po.
A short description of data set [8]: Potentiation of GABA-induced current in rat cortical neurons at 10 uM by whole-cell patch clamp technique. The class given is functional.
Data set [9] is described as follows: Inhibition of voltage dependent sodium current in rat cortical neurons at 10 uM by whole-cell patch clamp technique. It counts as functional.
Data set [10] relates to Rattus norvegicus. Description: Neurotoxicity in orally dosed Wistar rat after 2 hrs by RotoRod test. The class given is toxicity, organism-based. The settings on record: in vivo, po.
In data set [11] the test system is Rattus norvegicus. The data set is described as follows: Anticonvulsant activity in orally dosed Wistar rat after 2 hrs by PTZ test. It counts as functional. The settings on record: po.
The subject of data set [12] is Rattus norvegicus. Description: Anticonvulsant activity in orally dosed Wistar rat after 0.3 hrs by PTZ test. It counts as functional. The note with it: po.
In data set [13] the test system is Rattus norvegicus. The data set is described as follows: Neurotoxicity in orally dosed Wistar rat after 4 hrs by RotoRod test. The class given is toxicity, organism-based. The note with it: in vivo, po.
Data set [14] deals with Rattus norvegicus. Description: Neurotoxicity in orally dosed Wistar rat after 0.5 hrs by RotoRod test. It counts as toxicity, organism-based. The settings on record: in vivo, po.
Data set [15] relates to Rattus norvegicus. The data set is described as follows: Anticonvulsant activity in orally dosed Wistar rat after 0.5 hr by PTZ test. It counts as functional. The settings on record: po.
The nature of data set [16]: Displacement of [3H]flunitrazepam from benzodiazepine receptor in rat neuronal membranes at 10 uM.
The test system of data set [17] is Rattus norvegicus. Description: Anticonvulsant activity in orally dosed Wistar rat after 0.5 hrs by MES test. The class given is functional. The settings on record: po.
In data set [18] the test system is Rattus norvegicus. The data set is described as follows: Anticonvulsant activity in orally dosed Wistar rat after 3 hrs by PTZ test. It counts as functional. The note with it: po.
The test system of data set [19] is Rattus norvegicus. Description: Anticonvulsant activity in orally dosed Wistar rat after 4 hrs by MES test. It counts as functional. The settings on record: po.

Structures are written as SMILES.

Consider `Fc1cccc(-c2noc(Cn3cncn3)n2)c1`, for which the Activity in [1] turned out to be 212%. The ED50 (commonly the dose that gives a 50% effect, or the effect in half of the subjects) was determined as 128 mg/kg in the data set on Rattus norvegicus [2], 39.2 mg/kg with Rattus norvegicus [5] and 26.2 mg/kg in the data set with Rattus norvegicus [6]. For the same compound, in the data set filed under Rattus norvegicus [3], the inhibition (in general, the relative decrease from the control value, in per cent) is -1.6%. In addition, the inhibition at 100 µM in [4] is 12%.
`Cc1ccc(-c2noc(Cn3cncn3)n2)cc1`: the ED50 is 171 mg/kg in the data set on Rattus norvegicus [2], greater than 70 mg/kg with Rattus norvegicus [7] and 76.5 mg/kg in the data set on Rattus norvegicus [5].
For the compound `Clc1ccc(-c2noc(Cn3ccnc3)n2)cc1`, the Activity in data set [8] was 103%; in data set [1], 298%. The 50% effective dose (ED50) in the data set with Rattus norvegicus [2] was greater than 500 mg/kg. The inhibition in the data set filed under Rattus norvegicus [3] amounted to 0.2%. In addition, in data set [4], the inhibition at 100 µM is 72%.
`Clc1ccc(-c2nc(Cn3cncn3)no2)cc1` had a 50% effective dose (ED50) in the data set with Rattus norvegicus [5] greater than 100 mg/kg.
Take `c1ccc(-c2noc(Cn3ccnc3)n2)cc1`: in data set [9], the inhibition at 10 µM is 30%. Further, the Activity in data set [1] is 134%. The 50% effective dose (ED50) with Rattus norvegicus [7] was 5.8 mg/kg. Also, the inhibition in the data set filed under Rattus norvegicus [3] amounted to 0.6%. Also, the inhibition at 100 µM in [4] worked out at 83%.
Consider `Fc1ccccc1-c1noc(Cn2cncn2)n1`, for which the 50% effective dose (ED50) with Rattus norvegicus [10] is less than 250 mg/kg; with Rattus norvegicus [7] it was 44.3 mg/kg; in the data set on Rattus norvegicus [11], less than 50 mg/kg. Further, in [1], the Activity was 191%. Moreover, the inhibition in the data set listed under Rattus norvegicus [3] worked out at 2.2%.
For `Fc1ccc(-c2nc(Cn3cncn3)no2)cc1`, the results for the ED50 with Rattus norvegicus [12] and in the data set with Rattus norvegicus [13] were 15.2 mg/kg and less than 150 mg/kg, respectively.
As to `c1ccc(-c2nc(Cn3cncn3)no2)cc1`, the figures for the Activity in data set [8] and in data set [1] were 131% and 210%, respectively. For the same compound, the ED50 in the data set with Rattus norvegicus [2] is 335 mg/kg; in the data set on Rattus norvegicus [5], 25.5 mg/kg; in the data set on Rattus norvegicus [6] it was 14.6 mg/kg. Besides, the inhibition in the data set filed under Rattus norvegicus [3] is -3.1%. Also, in data set [4], the inhibition at 100 µM was found to be 9%.
On to `Fc1cccc(-c2nc(Cn3cncn3)no2)c1`, for which the 50% effective dose (ED50) in the data set with Rattus norvegicus [14] was less than 250 mg/kg; in the data set on Rattus norvegicus [5] it was 73.9 mg/kg.
As for `Cc1cccc(-c2noc(Cn3cncn3)n2)c1`, the ED50 stood at 95.9 mg/kg in the data set with Rattus norvegicus [15] and 219 mg/kg in the data set on Rattus norvegicus [2]. Also, the Activity was found to be 110% in [8] and 387% in [1]. Moreover, the inhibition in the data set listed under Rattus norvegicus [3] was -1.1%. The inhibition at 100 µM in data set [4] was determined as 22%.
Consider `CN1C(=O)CN=C(c2ccccc2)c2cc(Cl)ccc21` [DIAZEPAM], for which the Activity in data set [8] is reported as 216%. Besides, in data set [16], the inhibitory constant (Ki) (as a rule, the dissociation constant of the complex between target and ligand, obtained from inhibition or displacement) is 6.8 nM. In addition, the inhibition in the data set filed under Rattus norvegicus [3] is greater than 99%.
With `Cc1cccc(-c2nc(Cn3cncn3)no2)c1`, the ED50 is greater than 50 mg/kg with Rattus norvegicus [14], less than 50 mg/kg with Rattus norvegicus [17] and greater than 50 mg/kg with Rattus norvegicus [18].
`Clc1ccc(-c2noc(Cn3cncn3)n2)cc1`: the Activity is 141% in data set [8] and 553% in [1]. Besides, the 50% effective dose (ED50) is less than 100 mg/kg with Rattus norvegicus [2], 47.2 mg/kg with Rattus norvegicus [17], 29.5 mg/kg in the data set on Rattus norvegicus [11] and 21.8 mg/kg in the data set on Rattus norvegicus [6]. For the same compound, in the data set listed under Rattus norvegicus [3], the inhibition is -8%. In addition, the inhibition at 100 µM in [4] came to 31%.
`c1ccc(-c2noc(Cn3cncn3)n2)cc1`: the median effective dose (ED50) turned out to be 77 mg/kg in the data set with Rattus norvegicus [10], 13.1 mg/kg in the data set with Rattus norvegicus [19] and 37 mg/kg with Rattus norvegicus [11]. Besides, the Activity in data set [1] amounted to 286%. Further, in the data set filed under Rattus norvegicus [3], the inhibition came out at 2.7%. For the same compound, the inhibition at 100 µM in data set [4] stood at 8%.

Source of the values: ChEMBL document CHEMBL1147192, “New GABA-modulating 1,2,4-oxadiazole derivatives and their anticonvulsant activity” (Eur J Med Chem, 2007).
